From ChEMBL document CHEMBL3886760, “Cyclic amine substituted heterocyclic CETP inhibitors” (2016)

Molecular target: T1, Cholesteryl ester transfer protein (Homo sapiens, UniProt P11597)
T1 sequence (P11597 whole entry): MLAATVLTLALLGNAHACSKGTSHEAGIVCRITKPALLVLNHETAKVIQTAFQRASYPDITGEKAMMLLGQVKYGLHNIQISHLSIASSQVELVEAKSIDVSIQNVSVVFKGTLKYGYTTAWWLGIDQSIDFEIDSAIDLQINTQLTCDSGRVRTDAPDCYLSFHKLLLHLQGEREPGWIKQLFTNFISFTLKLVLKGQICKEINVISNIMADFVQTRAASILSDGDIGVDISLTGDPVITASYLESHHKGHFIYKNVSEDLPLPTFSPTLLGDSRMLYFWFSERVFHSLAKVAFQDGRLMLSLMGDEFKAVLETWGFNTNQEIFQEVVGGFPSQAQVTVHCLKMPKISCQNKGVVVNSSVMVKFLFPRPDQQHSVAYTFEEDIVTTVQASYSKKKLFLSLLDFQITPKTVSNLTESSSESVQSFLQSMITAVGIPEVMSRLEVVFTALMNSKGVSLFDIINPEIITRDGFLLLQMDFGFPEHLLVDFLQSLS
Experiment: Scintillation Proximity Assay (SPA): First, low density lipoprotein (LDL) (Meridian) was biotinylated by incubating LDL with biotin for 1 hour on ice, after which it was dialyzed to remove free biotin. Then compounds at varying concentrations were incubated with 15 nM CETP (reagent production group, In Vitro Pharmacology, MRL Rahway) and 50 ug/ml of the biotinylated LDL in 50 mM HEPES, 150 mM NaCl, pH 7.4, for 1 hour at 37° C. The reaction was started by adding 3H-cholesterol ester high density lipoprotein (HDL) (American Radiochemicals Corp) at a concentration of 0.6 nM. The reaction proceeded for 2 hours at 37° C., after which time it was quenched by the addition of 12% acetic acid. PVT streptavadin-coated scintillation proximity beads, which had been brought to room temperature, were then added at a concentration of 4 mg/ml. The assay was then mixed and counted after one half hour in a Microbeta plate reader.

`COc1ncc(Cl)cc1-c1cnc(N2CC(F)C2)nc1CN1C(=O)O[C@H](c2cc(C(F)(F)F)cc(C(F)(F)F)c2)[C@@H]1C` gave an IC50 of 0.038 µM.
